# Laboratory results taken from patent US20260137701A1, “CHOLESTENOIC ACID (CA) AND A SULFATED DERIVATIVE THEREOF, 3[BETA]-SULFATE-5-CHOLESTENOIC ACID (CA3S), AS ENDOGENOUS EPIGENETIC REGULATORS” (priority 2022, published 2026).
# Test system: HepG-2 cells
# Assay: Whole genome bisulfite sequencing (WGBS), differentially methylated regions
# Assay type: cell-based, human
# Conditions: for DMR (Methylation %) UQCRC1 promoter region / DMR (Methylation %) VDAC2 promoter region / number of DMRs in promoter region, hyper-methylated / number of DMRs in promoter region, hypo-methylated / number of DMRs in promoter region, total / DMR (Methylation %) ADRA1A promoter region / DMR (Methylation %) ADRA1B promoter region / DMR (Methylation %) ADRA1 promoter region / DMR (Methylation %) BCL6 promoter region / DMR (Methylation %) CACNA1D promoter region / DMR (Methylation %) CALML3 promoter region / DMR (Methylation %) CALML4 promoter region / DMR (Methylation %) CAMKK2 promoter region / DMR (Methylation %) COX7B promoter region / DMR (Methylation %) COX8A promoter region / DMR (Methylation %) CPT1A promoter region / DMR (Methylation %) CPT1C promoter region / DMR (Methylation %) CREB3L4 promoter region / DMR (Methylation %) CYP1A1 promoter region / DMR (Methylation %) ESR2 promoter region / DMR (Methylation %) FBP1 promoter region / DMR (Methylation %) FGF1 promoter region / DMR (Methylation %) FGF8 promoter region / DMR (Methylation %) FGFR2 promoter region / DMR (Methylation %) LDHA promoter region / DMR (Methylation %) LDHAL6A promoter region / DMR (Methylation %) LDHC promoter region / DMR (Methylation %) LEP promoter region / DMR (Methylation %) MIR29A promoter region / DMR (Methylation %) MIRLET7B promoter region / DMR (Methylation %) MTOR promoter region / DMR (Methylation %) NTRK3 promoter region / DMR (Methylation %) PDHA2 promoter region / DMR (Methylation %) PDHB promoter region / DMR (Methylation %) PHKG1 promoter region / DMR (Methylation %) PPARG promoter region / DMR (Methylation %) SDHA promoter region / DMR (Methylation %) SDHB promoter region / DMR (Methylation %) SPHK2 promoter region: 20 μM CA
# Experimental: After culturing HepG-2 cells in DMEM medium with HG for 72 hours followed by treating with 20 μM CA for 0, 3, 6, 12, and 24 hours, genomic DNA from 5×10^7 cells were extracted using QIAamp® DNA Mini Kit (QIAGEN, Hilden, Germany). Each sample, 6 μg, was sent to CD Genomics Co., Ltd (New York, USA) for analysis of WGBS. Total RNA was isolated using the Promega SV total RNA isolation system (Madison, WI, USA) with DNase treatment. Each sample, 2 μg, were sent to CD Genomics Co., Ltd (New York, USA) for analysis of RNA sequencing. The same samples, 2 μg, was used for the first-strand cDNA synthesis as recommended by the manufacturer (Invitrogen, Carlsbad, CA). RT-qPCR was performed using SYBR Green as the indicator on ABI 7500 Fast Real-Time PCR System (Applied Biosystems, Foster City, CA). Amplifications of j-actin or GAPDH were used as internal controls. Relative messenger RNA (mRNA) expression was quantified with the comparative cycle threshold (Ct) method using a sutiable primer set and was expressed as 2-ΔΔCt as described previously.
# Each sample, 1 μg of genomic DNA was fragmented by sonication to a mean size of approximately 200-400 bp, and subsequently used for WGBS library construction using Acegen Bisulfite-Seq Library Prep Kit (Acegen) following the manufacturer's instructions. The methylated adapter-ligated DNAs were purified using 0.8×Agencourt AMPure™ XP magnetic beads and subjected to bisulfite conversion by ZYMO EZ DNA Methylation-Gold™ Kit (Zymo Research Corporation, CA, USA). The converted DNAs were then amplified using 25 μl KAPA HiFi™ HotStart Uracil+ ReadyMix (2×) and 8-bp index primers with a final concentration of 1 μM each. The constructed WGBS libraries were then analyzed by Agilent 2100 Bioanalyzer and quantified by a Qubit fluorometer with Quant-iT™ dsDNA HS Assay Kit (Invitrogen), and finally sequenced on Illumina® Hiseq X™ Ten sequencer. After the preparation of the library, Qubit 2.0 and Agilent 2100 were used respectively to detect the concentration of the library and the Insert Size, and the effective concentration (>2 nM) of the library was quantitatively determined by Q-PCR to ensure the library quality.
# Samples were sequenced using the Illumina® HiSeq sequencing platform. Raw data generated on the sequencing platform contained a small percentage of low-quality data, which was then filtered to get high-quality data. Bsmap software was used to perform alignments of bisulfite-treated reads to a reference genome (GRCh37). Metilene software was used to identify differentially methylated regions (DMRs). DAVID software (website located at david.ncifcrf.gov/) was used to test the statistical enrichment of DMR related genes in the Gene Ontology (GO) and Kyoto Encyclopedia of Genes and Genomes (KEGG) pathways.
compound,measurement,setting,value
"CC(CCC[C@@H](C)[C@H]1CC[C@H]2[C@@H]3CC=C4C[C@@H](O)CC[C@]4(C)[C@H]3CC[C@]12C)C(=O)O (stereo partly drawn) [CA, 3β-hydroxy-5-cholestenoic acid]",DMR (Methylation %) UQCRC1 promoter region,6 h,−56.12%
same,DMR (Methylation %) VDAC2 promoter region,6 h,−40.06%
same,"number of DMRs in promoter region, hyper-methylated",6 hours,"1,749"
same,"number of DMRs in promoter region, hypo-methylated",6 hours,"22,621"
same,"number of DMRs in promoter region, total",6 hours,"24,370"
same,DMR (Methylation %) ADRA1A promoter region,12 h,−30.57%
same,DMR (Methylation %) ADRA1B promoter region,12 h,0%
same,DMR (Methylation %) ADRA1 promoter region,12 h,−30.57%
same,DMR (Methylation %) BCL6 promoter region,12 h,−33.25%
same,DMR (Methylation %) CACNA1D promoter region,12 h,0%
same,DMR (Methylation %) CALML3 promoter region,12 h,−30.32%
same,DMR (Methylation %) CALML4 promoter region,12 h,−21.6%
same,DMR (Methylation %) CAMKK2 promoter region,12 h,−23.88%
same,DMR (Methylation %) COX7B promoter region,12 h,0%
same,DMR (Methylation %) COX8A promoter region,12 h,0%
same,DMR (Methylation %) CPT1A promoter region,12 h,−16.93%
same,DMR (Methylation %) CPT1C promoter region,12 h,−24.72%
same,DMR (Methylation %) CREB3L4 promoter region,12 h,0%
same,DMR (Methylation %) CYP1A1 promoter region,12 h,0%
same,DMR (Methylation %) ESR2 promoter region,12 h,−28.97%
same,DMR (Methylation %) FBP1 promoter region,12 h,0%
same,DMR (Methylation %) FGF1 promoter region,12 h,−48.58%
same,DMR (Methylation %) FGF8 promoter region,12 h,−37.87%
same,DMR (Methylation %) FGFR2 promoter region,12 h,0%
same,DMR (Methylation %) LDHA promoter region,12 h,−36.43%
same,DMR (Methylation %) LDHAL6A promoter region,12 h,0%
same,DMR (Methylation %) LDHC promoter region,12 h,0%
same,DMR (Methylation %) LEP promoter region,12 h,−62.7%
same,DMR (Methylation %) MIR29A promoter region,12 h,−22.09%
same,DMR (Methylation %) MIRLET7B promoter region,12 h,0%
same,DMR (Methylation %) MTOR promoter region,12 h,−27.13%
same,DMR (Methylation %) NTRK3 promoter region,12 h,−53.95%
same,DMR (Methylation %) PDHA2 promoter region,12 h,−28.93%
same,DMR (Methylation %) PDHB promoter region,12 h,0%
same,DMR (Methylation %) PHKG1 promoter region,12 h,−24.54%
same,DMR (Methylation %) PPARG promoter region,12 h,−27.41%
same,DMR (Methylation %) SDHA promoter region,12 h,0%
same,DMR (Methylation %) SDHB promoter region,12 h,−38.35%
same,DMR (Methylation %) SPHK2 promoter region,12 h,−18.02%
same,DMR (Methylation %) UQCRC1 promoter region,12 h,−23.36%
same,DMR (Methylation %) VDAC2 promoter region,12 h,−19.71%
same,"number of DMRs in promoter region, hyper-methylated",12 hours,"1,891"
same,"number of DMRs in promoter region, hypo-methylated",12 hours,"23,813"
same,"number of DMRs in promoter region, total",12 hours,"25,704"
same,DMR (Methylation %) ADRA1A promoter region,24 h,−30.81%
same,DMR (Methylation %) ADRA1B promoter region,24 h,0%
same,DMR (Methylation %) ADRA1 promoter region,24 h,−30.81%
same,DMR (Methylation %) BCL6 promoter region,24 h,−31.52%
same,DMR (Methylation %) CACNA1D promoter region,24 h,0%
same,DMR (Methylation %) CALML3 promoter region,24 h,−26.91%
same,DMR (Methylation %) CALML4 promoter region,24 h,−21%
same,DMR (Methylation %) CAMKK2 promoter region,24 h,0%
same,DMR (Methylation %) COX7B promoter region,24 h,0%
same,DMR (Methylation %) COX8A promoter region,24 h,−34.15%
same,DMR (Methylation %) CPT1A promoter region,24 h,−29.33%
same,DMR (Methylation %) CPT1C promoter region,24 h,−24.09%
same,DMR (Methylation %) CREB3L4 promoter region,24 h,−35.93%
same,DMR (Methylation %) CYP1A1 promoter region,24 h,−27.04%
same,DMR (Methylation %) ESR2 promoter region,24 h,−24.69%
same,DMR (Methylation %) FBP1 promoter region,24 h,−28.62%
same,DMR (Methylation %) FGF1 promoter region,24 h,0%
same,DMR (Methylation %) FGF8 promoter region,24 h,0%
same,DMR (Methylation %) FGFR2 promoter region,24 h,−24.29%
same,DMR (Methylation %) LDHA promoter region,24 h,−32.94%
same,DMR (Methylation %) LDHAL6A promoter region,24 h,−22.36%
same,DMR (Methylation %) LDHC promoter region,24 h,−31.77%
same,DMR (Methylation %) LEP promoter region,24 h,0%
same,DMR (Methylation %) MIR29A promoter region,24 h,−26.93%
same,DMR (Methylation %) MIRLET7B promoter region,24 h,−24.75%
same,DMR (Methylation %) MTOR promoter region,24 h,0%
same,DMR (Methylation %) NTRK3 promoter region,24 h,−53.82%
same,DMR (Methylation %) PDHA2 promoter region,24 h,−38.56%
same,DMR (Methylation %) PDHB promoter region,24 h,−26.74%
same,DMR (Methylation %) PHKG1 promoter region,24 h,−33.52%
same,DMR (Methylation %) PPARG promoter region,24 h,−27.57%
same,DMR (Methylation %) SDHA promoter region,24 h,−23.5%
same,DMR (Methylation %) SDHB promoter region,24 h,0%
same,DMR (Methylation %) SPHK2 promoter region,24 h,−45.29%
same,DMR (Methylation %) UQCRC1 promoter region,24 h,−26.32%
same,DMR (Methylation %) VDAC2 promoter region,24 h,−26.13%
same,"number of DMRs in promoter region, hyper-methylated",24 hours,"1,594"
same,"number of DMRs in promoter region, hypo-methylated",24 hours,"26,762"
same,"number of DMRs in promoter region, total",24 hours,"28,356"
same,number of genes with demethylation of 5 mCpG to CpG in promoter regions,HepG-2 cells,"over 7,000"
